Here are results for two compounds from US20110002820A1, “EXTERIOR SURFACE TREATMENT SYSTEM” (priority 2008, published 2011).

Holding throughout (type): cell-based
One assay deals with Myrothecium verrucaria. Description: Fungicidal activity, minimum inhibitory concentration against fungi.
For the next assay, the system named is Chaetomium globosum. Described as above.
The next assay deals with Chlorella vulgaris. Description: Algistatic concentration against algae.
The test system of the next assay is Oscillatoria tenius. Description: Algistatic concentration against algae.
The test system of the next assay is Trichoderma viridae. Nature of the assay: Fungicidal activity, minimum inhibitory concentration against fungi.
In the next assay the test system is Stiegeocionim sp. Description: Algistatic concentration against algae.
The next assay deals with Aspergillus niger. Description: Fungicidal activity, minimum inhibitory concentration against fungi.
The subject of the next assay is Anabaena cylindrica. Description: Algistatic concentration against algae.

A word on the MIC: it is the lowest concentration found to suppress growth. Consider `CCCCCCCCCC[N+](C)(C)CCCCCCCCCC.[Cl-]` [DDAC, didecyl dimethyl ammonium chloride], for which the MIC was found to be 20 µg/mL against Myrothecium verrucaria (Albifimbria verrucaria), 7 µg/mL with Chaetomium globosum, 20 µg/mL with Trichoderma viridae and 75 µg/mL in the assay on Aspergillus niger. Besides, the Algistatic concentration is recorded as 2.0 ppm in the assay on Chlorella vulgaris, 0.7 ppm with Oscillatoria tenius, 0.7 ppm in the assay with Stiegeocionim sp. and 0.2 ppm in the assay with Anabaena cylindrica.

For the compound benzalkonium chloride [BAC], the Minimum inhibitory concentration in the assay with Myrothecium verrucaria amounted to 150 ppm; with Chaetomium globosum it was 7 ppm; in the assay on Trichoderma viridae, 75 ppm; in the assay on Aspergillus niger, 75 ppm. Besides, the Algistatic concentration was found to be 1.0 ppm in the assay with Chlorella vulgaris, 0.6 ppm in the assay with Oscillatoria tenius, 0.7 ppm in the assay on Stiegeocionim sp. and 1.0 ppm with Anabaena cylindrica.
